Entries after “also recorded” stand apart in the source; their conditions may differ. Blank lines part the entries; values can stand above or below the molecule they belong to.
Tests used:
p-STAT3 = experiment: Western blot of p-STAT3 in hRMVECs; assay type: cell-based, human; settings: VEGFA stimulation
Experimental: hRMVECs (Cell Systems, Kirkland, Wash.) were maintained in EGM-2 endothelial growth medium (Lonza, Walkers-ville, MD) supplemented with 5% fetal bovine serum. Cells of passage 3 to 5 were used for experiments. Confluent cells in six-well plates were starved for 16 hours and then treated with 20 ng/mL VEGFA or PBS for 24 hours for qPCR or 30 minutes for p-VEGFR2, p-EPOR, and p-STAT3.
(§1) For siRNA transfection, hRMVECs at 70% confluency were transfected in six-well plates with siRNAs targeting human EPOR, VEGFR2, or STAT3 (Life Technologies, Carlsbad, Calif.) using Lipofectamine 2000 reagent (Invitrogen by Life Technologies, Carlsbad, Calif.). A silencer selective negative control siRNA was used as control.
(§2) For cell proliferation assays, hRMVECs were plated into 96-well plates at a density of 5000 cells per well. […] Cell number was measured with a Vybrant MTT cell proliferation assay kit (Life Technologies, Carlsbad, Calif.).
(§3) Dissected retinas and hRMVECs were lysed in radioimmunoprecipitation assay buffer with 1:100 protease inhibitors (Roche Diagnostics, Indianapolis, Ind.) and 2 mmol/L sodium orthovanadate and were homogenized and centrifuged at 13,000 rpm (15,700 g) for 10 minutes at 4° C. Total protein in the supernatant fluid was quantified by a bicinchoninic acid assay (Pierce BCA; Thermo Fisher Scientific, Waltham, Mass.). […] At least six samples from each group were measured and analyzed.

NOX4 = experiment: ROS generation mediated by NOX4 in hRMVECs; assay type: cell-based, human
rat ROP model = experiment: Lectin-stained retinal flat mounts, IVNV and AVA, rat ROP model (rat 50/10 OIR model); assay type: in vivo
p-VEGFR2 = molecular target: T1, p-VEGFR2 (Homo sapiens, UniProt P35968); experiment: Western blot of p-VEGFR2 in hRMVECs; assay type: cell-based; settings: 30 minutes of EPO treatment
T1 construct: Dissected retinas and hRMVECs were lysed in radioimmunoprecipitation assay buffer; host or cells: hRMVECs
Description: For siRNA transfection, hRMVECs at 70% confluency were transfected in six-well plates with siRNAs targeting human EPOR, VEGFR2, or STAT3 (Life Technologies, Carlsbad, Calif.) using Lipofectamine 2000 reagent (Invitrogen by Life Technologies, Carlsbad, Calif.). […]
Dissected retinas and hRMVECs were lysed in radioimmunoprecipitation assay buffer with 1:100 protease inhibitors (Roche Diagnostics, Indianapolis, Ind.) and 2 mmol/L sodium orthovanadate and were homogenized and centrifuged at 13,000 rpm (15,700 g) for 10 minutes at 4° C. Total protein in the supernatant fluid was quantified by a bicinchoninic acid assay (Pierce BCA; Thermo Fisher Scientific, Waltham, Mass.). […] Blots were visualized, and the relative densities of bands were calculated as described herein, using gel analysis software (UN-SCAN-IT gel, version 6.1; Silk Scientific, Orem, Utah). Relative activities were calculated as the ratio of phosphorylated to total protein or to β-actin and are expressed as fold difference compared with control. […]

p-EPOR = experiment: Western blot of p-EPOR in hRMVECs; assay type: cell-based, human; settings: 30 minutes of EPO treatment
Description: (§4) hRMVECs (Cell Systems, Kirkland, Wash.) were maintained in EGM-2 endothelial growth medium (Lonza, Walkers-ville, MD) supplemented with 5% fetal bovine serum. Cells of passage 3 to 5 were used for experiments. […]
as §1, §2
as §3, with “Blots” for “At least six samples from each group”, “visualized,” for “measured”, “the relative densities of bands were calculated as described herein, using gel analysis software (UN-SCAN-IT gel, version 6.1; Silk Scientific, Orem, Utah). […]” for “analyzed.”

EPOR = EPOR expression in hRMVECs (qPCR, Western blot); assay type: cell-based, human; settings: overnight treatment; 20 ng/mL VEGFA or 10 IU/mL EPO; vs PBS
Description: as §4, §1
Total RNA of cells was extracted by TRI Reagent (Sigma-Aldrich, St. Louis, Mo.). For dissected retinas, total RNA was extracted using an RNeasy mini kit (Qiagen, Valencia, Calif.). RNA was quantified using a NanoDrop spectrophotometer (Thermo Fisher Scientific, Waltham, Mass.). cDNA was generated with the use of a high-capacity cDNA archive kit (Life Technologies, Carlsbad, Calif.). qPCR was performed on a Mastercycler ep realplex system (Eppendorf, Hauppauge, N.Y.) with the use of SYBR Green master mix (Roche Diagnostics, Indianapolis, Ind.) and primers synthesized by the core research facility of the University of Utah. Expression levels for VEGFA were normalized to the mean value of internal control β-actin. […]
Dissected retinas and hRMVECs were lysed in radioimmunoprecipitation assay buffer with 1:100 protease inhibitors (Roche Diagnostics, Indianapolis, Ind.) and 2 mmol/L sodium orthovanadate and were homogenized and centrifuged at 13,000 rpm (15,700 g) for 10 minutes at 4° C. Total protein in the supernatant fluid was quantified by a bicinchoninic acid assay (Pierce BCA; Thermo Fisher Scientific, Waltham, Mass.). […] Blots were visualized, and the relative densities of bands were calculated as described herein, using gel analysis software (UN-SCAN-IT gel, version 6.1; Silk Scientific, Orem, Utah). Relative activities were calculated as the ratio of phosphorylated to total protein or to β-actin and are expressed as fold difference compared with control. At least six samples from each group were measured and analyzed.

severe ROP = settings: weekly subcutaneous injections; preterm infants (n=102); cited from earlier work
hRMVECs [1] = experiment: VEGFA-induced hRMVEC proliferation assay (MTT); assay type: cell-based, human; settings: 20 ng/mL VEGFA 24 hours; SU5416 5 μmol/L, AG490 10 μmol/L, siRNA transfection
Experimental: as §1
For cell proliferation assays, hRMVECs were plated into 96-well plates at a density of 5000 cells per well. At 24 hours after transfection with siRNA, cells were starved in serum-free medium for 24 hours and then were incubated with 20 ng/mL VEGFA or control PBS for another 24 hours. To inhibit VEGFR2 or STAT3 activation, cells were pretreated with 5 μmol/L of the VEGFR2 tryosine-kinase inhibitor semaxanib (SU5416), 10 μmol/L of the JAK2/STAT3 inhibitor AG490 (both from Sigma-Aldrich, St. Louis, Mo.), or dimethyl sulfoxide (DMSO) vehicle control for 1 hour before addition of VEGFA. Cell number was measured with a Vybrant MTT cell proliferation assay kit (Life Technologies, Carlsbad, Calif.).

hRMVECs [2] = experiment: TUNEL+ cells in hRMVECs; assay type: cell-based, human; settings: vs. DMSO
ROP+SO model = experiment: IVNV in rat ROP model rescued in 28% oxygen (ROP+SO model); assay type: in vivo; settings: intraperitoneal, p18, vs. PBS
Description: Activation of NADPH oxidase generally requires aggregation of a NOX isoform (NOX1-5, Duox1 or 2) with membrane bound p22phox; for NOX1-3 activation, aggregation with Rac1 and cytoplasmic subunits p47phox, p67phox or homologs is also required. Few studies address oxygen effects on NADPH oxidase regulated signaling in ROP or development. Studying NADPH oxidase in vivo is also complicated, because 1) of compensation from NOX isoforms or homologs, which differ in different tissues, and 2) most inhibitors are not specific. In this example, oxygen stresses were varied by using 3 different OIR models: ROP and ROP+SO models in rat and OIR model in mouse. NADPH oxidase-induced signaling in ECs was targeted by reducing leukocyte/macrophages, which generate ROS through NADPH oxidase, or with a transgenic mouse. In rat ROP and ROP+SO models, macrophages ˜75% (FIG. 7A) were reduced with 1 uL intravitreal clodronate). […] Macrophages have multiple effects on angiogenesis including through non-NADPH oxidase mechanisms, so a more specific method was used to study NADPH oxidase-related signaling. NOX 1, 2, 4 are known to be involved in pathologic retinal angiogenesis; NOX2 is in macrophages and ECs. Therefore p47phox−/− mice were used to reduce NADPH oxidase activation from NOX 1-3. […]
7 experiments were conducted to accomplish three specific objectives. […] Pup weights were monitored. […]

T1 sequence (P35968 20-1356): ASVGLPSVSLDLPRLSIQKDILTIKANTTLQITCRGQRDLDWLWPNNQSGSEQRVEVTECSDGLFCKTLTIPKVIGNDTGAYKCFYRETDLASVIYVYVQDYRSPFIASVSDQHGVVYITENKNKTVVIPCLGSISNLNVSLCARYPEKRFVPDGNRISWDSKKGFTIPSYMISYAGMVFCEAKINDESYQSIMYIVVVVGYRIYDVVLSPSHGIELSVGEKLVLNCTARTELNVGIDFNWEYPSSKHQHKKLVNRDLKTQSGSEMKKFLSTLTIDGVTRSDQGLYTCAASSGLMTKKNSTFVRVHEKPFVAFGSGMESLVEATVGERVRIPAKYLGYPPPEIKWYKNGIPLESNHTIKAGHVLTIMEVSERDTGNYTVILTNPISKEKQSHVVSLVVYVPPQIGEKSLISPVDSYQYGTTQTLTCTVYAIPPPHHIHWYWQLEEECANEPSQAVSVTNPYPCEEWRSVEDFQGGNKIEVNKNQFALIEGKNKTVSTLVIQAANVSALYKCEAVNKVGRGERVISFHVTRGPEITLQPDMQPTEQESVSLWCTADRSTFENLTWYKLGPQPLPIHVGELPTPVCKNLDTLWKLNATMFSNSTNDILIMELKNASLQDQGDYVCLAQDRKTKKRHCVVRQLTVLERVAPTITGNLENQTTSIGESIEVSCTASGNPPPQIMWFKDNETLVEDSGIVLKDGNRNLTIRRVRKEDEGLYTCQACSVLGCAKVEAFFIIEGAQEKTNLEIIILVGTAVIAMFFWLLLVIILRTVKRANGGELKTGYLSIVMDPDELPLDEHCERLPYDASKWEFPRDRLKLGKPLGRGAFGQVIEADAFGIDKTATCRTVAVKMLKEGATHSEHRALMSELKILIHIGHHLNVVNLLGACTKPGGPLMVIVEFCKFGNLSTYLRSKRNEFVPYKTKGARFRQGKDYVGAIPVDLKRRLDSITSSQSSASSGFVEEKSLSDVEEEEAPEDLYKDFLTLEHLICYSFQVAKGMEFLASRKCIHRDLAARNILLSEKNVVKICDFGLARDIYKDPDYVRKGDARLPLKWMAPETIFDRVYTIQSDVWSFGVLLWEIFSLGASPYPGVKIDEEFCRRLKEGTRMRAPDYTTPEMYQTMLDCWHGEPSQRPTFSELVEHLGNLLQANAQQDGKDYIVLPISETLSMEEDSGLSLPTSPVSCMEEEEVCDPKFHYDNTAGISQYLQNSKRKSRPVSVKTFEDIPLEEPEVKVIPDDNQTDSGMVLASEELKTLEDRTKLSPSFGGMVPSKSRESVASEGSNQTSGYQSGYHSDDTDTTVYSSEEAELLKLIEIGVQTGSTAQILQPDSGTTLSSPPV

Molecule: CO[C@@H]1[C@@H]2OP(=O)(O)OC[C@H]2O[C@H]1n1c(Sc2ccc(Cl)cc2)nc2c(N)ncnc21 [8CPT, 8CPT 2′OMe-cAMP]
VEGFA-induced p-STAT3 (p-STAT3): inhibits VEGF (V)-induced STAT3 activation | basal and VEGF-induced ROS generation (NOX4): inhibits VEGF (V)-induced STAT3 activation, B) basal and VEGF-induced ROS generation

Molecule: erythropoietin [EPO]
Phase II IVNV (rat ROP model; ROP model): did not reduce Phase II IVNV | PRVD in Phase I (rat ROP model; delivered at early ages): restored PRVD in Phase I | restoration of developmental retinal vascularization (rat ROP model; exogenous): 40% | p-VEGFR2 level (p-VEGFR2): did not increase p-EPOR and p-VEGFR2 levels | p-EPOR level (p-EPOR): did not increase p-EPOR and p-VEGFR2 levels | EPOR protein (EPOR): led to an increase in EPOR protein

Molecule: darbepoietin
occurrence of severe ROP (severe ROP): neither increased nor reduced the occurrence of severe ROP

TUNEL+ cells (hRMVECs [2]): increases TUNEL+ cells
Molecule: N#C/C(=C/c1ccc(O)c(O)c1)C(=O)NCc1ccccc1 [AG490]
VEGFA-induced hRMVEC proliferation (hRMVECs [1]): reduced VEGFA-induced hRMVEC proliferation to baseline | IVNV (ROP+SO model): inhibited Phase II IVNV in the ROP+SO; also recorded: reduced IVNV

Reference: patent publication US10214741B2, “Methods and compositions for inhibiting retinopathy of prematurity” (University of Utah Research Foundation, priority 2014, dated 2019)
